Tests used:
MALME-3M = experiment: NCIDTP 60 cancer cell lines screening, Melanoma panel; assay type: cell-based
IGROV1 = experiment: NCIDTP 60 cancer cell lines screening, Ovarian Cancer panel; assay type: cell-based
CAKI-1 = experiment: NCIDTP 60 cancer cell lines screening, Renal Cancer panel; assay type: cell-based
A498 = experiment: as above; assay type: cell-based
786-0 = experiment: as above; assay type: cell-based
[1] = test system: HT29 colon cancer xenograft; experiment: In vivo study, HT29 colon cancer xenograft model (FIG. 11); parameters: species or system BALB/c athymic nude mice; conditions: HT29 xenograft in nude mice, 5 mg/kg/day, i.p., 20 days
Text: HT29 colon cancer xenograft model is a generally accepted in vivo cancer model and the formed tumor grows very aggressively. […] In the experiment, HT29 xenografts were established in ovariectomized 5- to 6-week-old BALB/c athymic nude mice (Case Western Reserve University animal facility). When tumors reach 150-200 mm^3 (i.e., in 2-4 weeks), the animals are randomly allocated (n=3 per group) to be treated with the compounds or vehicle (1% Tween 80) administered via i.p. Tumor growth was assessed and tumor weights were measured at the end of the experiment after the mice were killed. The animal care was in accordance with institutional guidelines.

M14 = experiment: NCIDTP 60 cancer cell lines screening, Melanoma panel; assay type: cell-based
UO-31 = experiment: NCIDTP 60 cancer cell lines screening, Renal Cancer panel; assay type: cell-based

Structure (SMILES): Cc1ccc(C)c(COc2cc(NC(=O)c3ccc4c(c3)OCO4)ccc2N(C)S(C)(=O)=O)c1 [Compound #10, Benzo[1,3]dioxole-5-carboxylic acid [3-(2,5-dimethyl-benzyloxy)-4-(methanesulfonyl-methyl-amino)-phenyl]-amide]
- GI50 (MALME-3M; Homo sapiens, Malme-3M): 0.229 µM
- CC50 (MALME-3M; Homo sapiens, Malme-3M, read-out: LC50): > 100 µM
- TGI (MALME-3M; MALME-3M): >1.00E−4 Molar
- Percent Growth (MALME-3M; MALME-3M, Log10 Concentration −4.0 Molar): 49%
- Percent Growth (MALME-3M; MALME-3M, Log10 Concentration −5.0 Molar): 40%
- Percent Growth (MALME-3M; MALME-3M, Log10 Concentration −6.0 Molar): 31%
- Percent Growth (MALME-3M; MALME-3M, Log10 Concentration −7.0 Molar): 61%
- Percent Growth (MALME-3M; MALME-3M, Log10 Concentration −8.0 Molar): 87%
- CC50 (IGROV1; Homo sapiens, IGROV-1, read-out: LC50): > 100 µM
- GI50 (IGROV1; Homo sapiens, IGROV-1, IGROV1): 0.237 µM
- TGI (IGROV1; IGROV1): >1.00E−4 Molar
- Percent Growth (IGROV1; IGROV1, Log10 Concentration −4.0 Molar): 13%
- Percent Growth (IGROV1; IGROV1, Log10 Concentration −5.0 Molar): 13%
- Percent Growth (IGROV1; IGROV1, Log10 Concentration −6.0 Molar): 18%
- Percent Growth (IGROV1; IGROV1, Log10 Concentration −7.0 Molar): 69%
- Percent Growth (IGROV1; IGROV1, Log10 Concentration −8.0 Molar): 92%
- TGI (CAKI-1; CAKI-1): >1.00E−4 Molar
- Percent Growth (CAKI-1; CAKI-1, Log10 Concentration −4.0 Molar): 5%
- Percent Growth (CAKI-1; CAKI-1, Log10 Concentration −5.0 Molar): 2%
- Percent Growth (CAKI-1; CAKI-1, Log10 Concentration −6.0 Molar): 16%
- Percent Growth (CAKI-1; CAKI-1, Log10 Concentration −7.0 Molar): 54%
- Percent Growth (CAKI-1; CAKI-1, Log10 Concentration −8.0 Molar): 100%
- GI50 (CAKI-1; Homo sapiens, CAKI-1): 0.126 µM
- CC50 (CAKI-1; Homo sapiens, CAKI-1, read-out: LC50): > 100 µM
- TGI (A498; A498): 8.53E−7 Molar
- Percent Growth (A498; A498, Log10 Concentration −4.0 Molar): −5%
- Percent Growth (A498; A498, Log10 Concentration −5.0 Molar): −7%
- Percent Growth (A498; A498, Log10 Concentration −6.0 Molar): −4%
- Percent Growth (A498; A498, Log10 Concentration −7.0 Molar): 55%
- Percent Growth (A498; A498, Log10 Concentration −8.0 Molar): 86%
- GI50 (A498; Homo sapiens, A498): 0.122 µM
- CC50 (A498; Homo sapiens, A498, read-out: LC50): > 100 µM
- TGI (786-0; 786-0): 1.11E−6 Molar
- Percent Growth (786-0; 786-0, Log10 Concentration −4.0 Molar): −14%
- Percent Growth (786-0; 786-0, Log10 Concentration −5.0 Molar): −22%
- Percent Growth (786-0; 786-0, Log10 Concentration −6.0 Molar): 1%
- Percent Growth (786-0; 786-0, Log10 Concentration −7.0 Molar): 69%
- Percent Growth (786-0; 786-0, Log10 Concentration −8.0 Molar): 91%
- GI50 (786-0; Homo sapiens, 786-0): 0.191 µM
- CC50 (786-0; Homo sapiens, 786-0, read-out: LC50): > 100 µM
- tumor growth [1]: significantly inhibited the tumor growth
- GI50 (M14; Homo sapiens, M14): 0.0757 µM
- CC50 (M14; Homo sapiens, M14, read-out: LC50): > 100 µM
- TGI (M14; M14): 6.69E−7 Molar
- Percent Growth (M14; M14, Log10 Concentration −4.0 Molar): −29%
- Percent Growth (M14; M14, Log10 Concentration −5.0 Molar): −45%
- Percent Growth (M14; M14, Log10 Concentration −6.0 Molar): −9%
- Percent Growth (M14; M14, Log10 Concentration −7.0 Molar): 45%
- Percent Growth (M14; M14, Log10 Concentration −8.0 Molar): 90%
- GI50 (UO-31; Homo sapiens, UO-31): 0.395 µM
- CC50 (UO-31; Homo sapiens, UO-31, read-out: LC50): > 100 µM
- TGI (UO-31; UO-31): >1.00E−4 Molar
- Percent Growth (UO-31; UO-31, Log10 Concentration −4.0 Molar): 14%
- Percent Growth (UO-31; UO-31, Log10 Concentration −5.0 Molar): 12%
- Percent Growth (UO-31; UO-31, Log10 Concentration −6.0 Molar): 35%
- Percent Growth (UO-31; UO-31, Log10 Concentration −7.0 Molar): 73%
- Percent Growth (UO-31; UO-31, Log10 Concentration −8.0 Molar): 78%
